Results reported in PMC6585933 (Clinical Pharmacology in Drug Development, 2018).
“And” between values parts separate entries of the source, which are not always exact repeats. Identical values can stand only once. Like-named read-outs stand apart in the source and are kept apart here.

Tests used:
[1] = saquinavir with a single concomitant dose of 600‐mg ritonavir; cited from earlier work
[2] = format: in vivo, human; conditions: for AUC: AUC0–tn; for AUC(0-inf): AUC0–∞
[3] = cited from earlier work
[4] = format: in vivo, human; conditions: for CL/F, arithmetic mean: N = 24; for AUC0‐∞, ratio amenamevir with ritonavir vs amenamevir alone / Cmax, ratio amenamevir with ritonavir vs amenamevir alone: ritonavir 600 mg; for AUC: AUC0‐∞; for AUC / Cmax: LS mean, n = 24; for Tmax: po
[5] = test system: OAT1; conditions: ^14C‐amenamevir, ref unpublished data held by Maruho; cited from earlier work
[6] = ^14C‐amenamevir in humans; ref unpublished data held by Maruho; cited from earlier work
[7] = test system: human multidrug resistance transporter P‐glycoprotein (P‐gp); conditions: ^14C‐amenamevir, cells expressing P‐gp; ref unpublished data held by Maruho; cited from earlier work
[8] = test system: OATP1B3; conditions: ^14C‐amenamevir, ref unpublished data held by Maruho; cited from earlier work
[9] = test system: OAT3; conditions: ^14C‐amenamevir, ref unpublished data held by Maruho; cited from earlier work
[10] = test system: CYP3A4/5; conditions: read-out: half maximal inhibitory concentration, very weak or no inhibitory activity, ref unpublished data held by Maruho; cited from earlier work
[11] = test system: CYP3A4; conditions: human hepatocytes, 1 to 100 μM; ref unpublished data held by Maruho; cited from earlier work
[12] = test system: organic cation uptake transporter‐2; conditions: ^14C‐amenamevir, organic cation uptake transporter‐2–expressing cells; ref unpublished data held by Maruho; cited from earlier work
[13] = single oral dose of 200 mg ^14C‐amenamevir; ref unpublished data held by Maruho; cited from earlier work
[14] = amenamevir plus ketoconazole vs amenamevir alone; cited from earlier work
[15] = test system: cytochrome P450 (CYP) 3A4/5; conditions: human liver microsomes; ref unpublished data held by Maruho; cited from earlier work
[16] = format: in vivo, human; conditions: for CL/F, arithmetic mean / Tmax: plasma; for CL/F, arithmetic mean: n = 24; for Tmax: male, human, po
[17] = test system: acyclovir‐resistant VZV strains; conditions: in vitro; cited from earlier work
[18] = test system: OATP1B1; conditions: ^14C‐amenamevir, ref unpublished data held by Maruho; cited from earlier work
[19] = Day 12 midazolam 7.5 mg with amenamevir 400 mg vs Day 1 midazolam alone
[20] = Day 19, midazolam 7.5 mg alone, 7 days after last amenamevir dose, n = 18
[21] = after amenamevir 400 mg once daily for 10 days
[22] = male, human, plasma, oral, arithmetic mean, Day 12, midazolam 7.5 mg with amenamevir 400 mg (last of 10 daily doses), n = 18
[23] = male, human, plasma, oral, geometric mean, Day 12, midazolam 7.5 mg with amenamevir 400 mg (last of 10 daily doses), n = 18
[24] = male, human, plasma, oral, LS mean, Day 12, midazolam 7.5 mg with amenamevir 400 mg (last of 10 daily doses), n = 18
[25] = midazolam with rifampicin as inducer
[26] = amenamevir 400 mg with ritonavir 600 mg
[27] = amenamevir 1200 mg with ritonavir 600 mg
[28] = amenamevir 400‐mg or 1200‐mg with single 600‐mg dose of ritonavir
[29] = male, human, plasma, 1200 mg, amenamevir 1200 mg alone
[30] = male, human, plasma, amenamevir 400 mg with ritonavir 600 mg
[31] = male, human, plasma, amenamevir 1200 mg with ritonavir 600 mg

**Q.** For `CC(C)(C)NC(=O)[C@@H]1C[C@@H]2CCCC[C@@H]2CN1C[C@@H](O)[C@H](Cc1ccccc1)NC(=O)[C@H](CC(N)=O)NC(=O)c1ccc2ccccc2n1` [saquinavir], which “increase of plasma concentrations” value [1] is on record?
**A.** Its value is over 50 fold.

**Q.** For `Cc1ncc2n1-c1ccc(Cl)cc1C(c1ccccc1F)=NC2` [midazolam], which “reduction in plasma concentrations of midazolam” value ([2]; CYP3A‐inducing effect of amenamevir) is on record?
**A.** Its value is 52%.

**Q.** And the “CL/F, arithmetic mean” value ([2]; Day 1, midazolam 7.5 mg oral alone (control), plasma, n = 18)?
**A.** Its value is 68.5 L/h.

**Q.** And the “CL/F, arithmetic mean” value ([2]; Day 12, midazolam 7.5 mg with amenamevir 400 mg (last of 10 daily doses), n = 18)?
**A.** The value was 134.3 L/h.

**Q.** What about the “AUC0–∞, LS mean ratio vs control (90%CI)” value [2, 19] of the same compound?
**A.** The value was about 51%.

**Q.** What about the “Cmax, LS mean ratio vs control (90%CI)” value [2, 19] of the same compound?
**A.** The value was “about 68%”.

**Q.** And the “CL/F, arithmetic mean” value [2, 20]?
**A.** Its value is 63 L/h.

**Q.** And the “Tmax, median” value [2, 20]?
**A.** Its value is 0.5 h.

**Q.** And the “AUC0–∞, LS mean ratio vs control” value ([2]; Day 19 midazolam alone vs Day 1 midazolam alone)?
**A.** The value was 110%.

**Q.** What about the “CL/F, arithmetic mean” value ([2]; Day 26, midazolam 7.5 mg alone, 14 days after last amenamevir dose, n = 18) of the same compound?
**A.** Its value is 65.2 L/h.

**Q.** And the “AUC0–∞, LS mean ratio vs control” value ([2]; Day 26 midazolam alone vs Day 1 midazolam alone)?
**A.** The value was 108%.

**Q.** What about the “reduction of Cmax of midazolam” value [2, 21] of the same compound?
**A.** Its value is “about 32%”.

**Q.** And the “reduction of average concentrations (AUC) of midazolam” value [2, 21]?
**A.** Its value is “about 51%”.

**Q.** And the AUC [2, 22]?
**A.** Its AUC is 59 ng·h/mL.

**Q.** What about the AUC [2, 23] of the same compound?
**A.** Its AUC is 56.7 ng·h/mL.

**Q.** What about the AUC(0-inf) [2, 24] of the same compound?
**A.** Its AUC(0-inf) is 58 ng·h/mL.

**Q.** What about the AUC(0-inf) [2, 22] of the same compound?
**A.** Its AUC(0-inf) is 60.3 ng·h/mL.

**Q.** What about the AUC(0-inf) [2, 23] of the same compound?
**A.** Its AUC(0-inf) is 58 ng·h/mL.

**Q.** What about the Cmax [2, 24] of the same compound?
**A.** The Cmax was 23 ng/mL.

**Q.** What about the Cmax [2, 22] of the same compound?
**A.** Its Cmax is 24.5 ng/mL.

**Q.** And the Cmax [2, 23]?
**A.** The Cmax was 23.4 ng/mL.

**Q.** What about the half-life ([2]; male, human, plasma, oral, t1/2, arithmetic mean, Day 12, midazolam 7.5 mg with amenamevir 400 mg (last of 10 daily doses), n = 18) of the same compound?
**A.** Its half-life is 3.7 h.

**Q.** And the Tmax ([2]; male, human, plasma, po, 7.5 mg)?
**A.** Its Tmax is 0.5 h.

**Q.** And the “mean elimination half‐life” value ([3]; midazolam before rifampicin)?
**A.** Its value is 3.2 h.

**Q.** What about the “reduction of AUC” value [3, 25] of the same compound?
**A.** Its value is 64 fold.

**Q.** And the “reduction of Cmax” value [3, 25]?
**A.** Its value is 27 fold.

**Q.** For `OCc1ncc2n1-c1ccc(Cl)cc1C(c1ccccc1F)=NC2` [1‐hydroxymidazolam], which “plasma concentrations, influence of coadministration of amenamevir” value ([2]; metabolite after midazolam 7.5 mg with amenamevir 400 mg) is on record?
**A.** Its value is “not influenced”.

**Q.** Which results are given for `Cc1cccc(C)c1N(CC(=O)Nc1ccc(-c2ncon2)cc1)C(=O)C1CCS(=O)(=O)CC1` [amenamevir]?
**A.** CL/F, arithmetic mean ([4]; amenamevir 400 mg single oral dose alone, plasma): 18.3 L/h; geometric mean AUC0‐∞, times higher than after amenamevir alone [4, 26]: about 2.6 times higher; geometric mean Cmax, times higher than after amenamevir alone [4, 26]: about 1.4 times higher; CL/F, arithmetic mean ([4]; amenamevir 400 mg with single dose ritonavir 600 mg): 6.8 L/h; AUC0‐∞, ratio amenamevir with ritonavir vs amenamevir alone ([4]; amenamevir 400 mg): 260%; Cmax, ratio amenamevir with ritonavir vs amenamevir alone ([4]; amenamevir 400 mg): 136%; CL/F, arithmetic mean ([4]; amenamevir 1200 mg single oral dose alone, plasma): 25.7 L/h; geometric mean AUC0‐∞, times higher than after amenamevir alone [4, 27]: ~3.3 times higher; geometric mean Cmax, times higher than after amenamevir alone [4, 27]: ~1.6 times higher; CL/F, arithmetic mean ([4]; amenamevir 1200 mg with single dose ritonavir 600 mg): 7.6 L/h; AUC0‐∞, ratio amenamevir with ritonavir vs amenamevir alone ([4]; amenamevir 1200 mg): 334%; Cmax, ratio amenamevir with ritonavir vs amenamevir alone ([4]; amenamevir 1200 mg): 163%; increase in AUC [4, 28]: > 3 fold; increase in Cmax [4, 28]: about 1.5 fold; AUC ([4]; male, human, plasma, 400 mg, amenamevir 400 mg alone): 23200 ng·h/mL; AUC [4, 29]: 48500 ng·h/mL; Cmax [4, 29]: 3800 ng/mL; AUC [4, 30]: 60200 ng·h/mL; AUC [4, 31]: 162000 ng·h/mL; Cmax [4, 30]: 2520 ng/mL; Cmax [4, 31]: 6210 ng/mL; half-life ([4]; male, human, plasma, geometric mean elimination half‐life, amenamevir alone, irrespective of the dose (400 mg and 1200 mg)): ~7 h; Cmax ([4]; male, human, plasma, oral, 400 mg, amenamevir 400 mg alone): 1850 ng/mL; Tmax ([4]; male, human, plasma, 400 mg): 3 h; Tmax ([4]; male, human, plasma, 1200 mg): 3 h; treatment‐emergent adverse event headache, frequency ([4]; with 400‐mg amenamevir (ritonavir study group)): 16.7%; treatment‐emergent adverse event headache, frequency ([4]; with 1200‐mg amenamevir (ritonavir study group)): 29.2%; uptake into transporter‐expressing cells [5]: no uptake; plasma protein binding [6]: about 75%; substrate of the human multidrug resistance P‐gp transporter [7]: is a substrate; uptake into transporter‐expressing cells [8]: no uptake; uptake into transporter‐expressing cells [9]: no uptake; IC50 [10]: > 100 µM; induction of CYP3A4 [11]: showed the potential to induce CYP3A4; uptake into transporter‐expressing cells [12]: no uptake; ^14C radioactivity recovered in feces [13]: 74.6%; geometric mean ratio for AUCinf (90%CI) [14]: 2.58 (90%CI, 2.32‐2.87); geometric mean ratio for Cmax (90%CI) [14]: 1.30 (90%CI, 1.17‐1.45); role of CYP3A4/5 in the metabolism of amenamevir [15]: main isozymes; CL/F, arithmetic mean ([16]; amenamevir 400 mg single oral dose alone (control)): 17.7 L/h; CL/F, arithmetic mean ([16]; amenamevir 1200 mg single oral dose alone (control)): 25.7 L/h; geometric mean (90%CI) AUC0‐∞ as % of that after amenamevir alone ([16]; amenamevir 1200 mg with cyclosporine 100 mg twice daily): ~79(73, 85) % and ~79%; Tmax ([16]; 400 mg): 3 h; Tmax ([16]; 1200 mg): 3 h; activity against acyclovir‐resistant VZV strains [17]: good activity; uptake into transporter‐expressing cells [18]: no uptake

**Q.** With `CC(C)c1nc(CN(C)C(=O)N[C@H](C(=O)N[C@@H](Cc2ccccc2)C[C@H](O)[C@H](Cc2ccccc2)NC(=O)OCc2cncs2)C(C)C)cs1` [ritonavir, reference compound] as the compound, how does the “t1/2, geometric mean” value ([4]; ritonavir 600 mg single dose with amenamevir 400 mg, n 24) read?
**A.** The value was 4.5 h.
